Here are results for one compound from patent US20040087561A1, “Treatment of sexual dysfunction” (priority 2000, published 2004).

In assay [1] the test system is ovariectomised female Sprague Dawley rats. As to the kind of experiment: Inhibition of female rat sexual proceptivity by NMB and its antagonism. The conditions noted are these: pre-treatment 15 mg/kg i.p. 1 h before NMB 100 ng i.c.v.; progesterone-treated rats; blockade not total. In kind it is in vivo. The procedure: Ovariectomised female rats (Sprague Dawley, obtained from Charles River, UK) were stereotaxically implanted (coordinates 0.89 mm behind Bregma, 1.3 mm lateral and 2.5 mm vertical) with stainless steel cannulae (6 mm long, O.D. 0.75 mm), held in place with dental cement. Animals were housed in groups of three and returned to a reversed lighting system of 12 h light:dark (lights off 5.00-17.00 h). Correct placement of the cannulae was assessed post-mortem. Rats were used for tests two weeks after ovariectomy (one week after cannulation). The experiments started at least 5 h into the dark period. Forty eight hours before tests, the animals were primed with 5 μg oestradiol benzoate (OB) (s.c, in corn oil) and adapted to the apparatus (in the absence of stimuli animals) for 10 min on 2 consecutive days prior testing. The 10 min test was carried out as previously described. The difference in the percentage of time spent investigating male minus female was calculated, out of the total time spent investigating stimuli.
Progesterone (Prog, 0.5 mg/0.1 ml) was dissolved in corn oil and administered subcutaneously (s.c.), 4 h before test, to induce proceptive behaviour. Compound (1) (15 mg/kg, i.p.) was dissolved in 50% 2-hydroxypropyl-β-cyclodextrin in saline and administered 1 h before the i.c.v. administration. Neuromedin B was obtained from Bachem, UK. It was dissolved in isotonic saline and administered i.c.v. over a 30 sec period, with the aid of a pump set to deliver a flow of 10 μl/min, 10 min before tests. The dosing volume was 5 μl/rat. Each rat received a total amount of 100 ng.
From the present study we can conclude that stimulation of BB1 receptors with an agonist results in inhibition of proceptive behaviour. This inhibitory effect may be prevented by the presence of an antagonist. e.g. Compound (1) In FIG. 5 the bars represent percentage of time spent investigating male, minus the percentage of time spent investigating the female stimuli+SEM, (n=8-12 per group). ***P<0.001 vs progesterone (One-way ANOVA followed by Dunnett's test).

In the next assay the test system is Sprague Dawley male rats. As to the kind of experiment: Sexual behaviour of sexually dysfunctional (fluoxetine-treated) male rats. In kind it is in vivo, rat. Particulars: fluoxetine 20 mg/kg i.p. 3 days (vs vehicle+vehicle); day 4 Compound (1) 15 mg/kg or yohimbine 2 mg/kg i.p. 1 h before test (vs fluoxetine+vehicle). On the procedure:
Sprague Dawley male rats (Charles River, UK) were kept, 4 rats per cage, in a reversed lighting regime (12:12 hours, lights off at 5.00 h), with free access to food and water. The rats were pre-selected by being presented with a receptive female at […], i.e. every third day (haying 2 clear days between presentations) until completing 6-7 trials of baseline determination. The animals showing consistently vigorous behaviour (ejaculatory latencies <300 s) were chosen for further experiments. Animals were treated for 3 consecutive days with either vehicle (water) or fluoxetine (20 mg/kg, i.p., in a 2 ml/kg dosing volume). On the fourth day, the animals treated with water received vehicle (veh+veh) and the animals treated with fluoxetine received one of the three following treatments: Compound (1) (15 mg/kg, dissolved in 50% 2-hydroxypropyl-β-cyclodextrin in saline), vehicle (cyclodextrine), or yohimbine (2 mg/kg dissolved in water). All treatments were administered i.p. in a 1 ml/kg volume, 1 h before tests.
For all the sexual behaviour tests, the males were placed in an observation arena (50-60 cm diameter), starting 5 hours into the dark cycle and observed under red illumination. Three to 4 minutes after placing the male in the arena, a receptive female (ovariectomised, bearing a 7 mm Silastic implant of oestradiol benzoate) was introduced to the arena and the following parameters noted: Mount Latency: time (in seconds) taken between introduction of female and first mount. A maximum time of 15 minutes (900 seconds) was allowed, and the test terminated if no mounts were recorded within that time (FIG. 16), Ejaculation Latency: time (in seconds) taken from first intromission to ejaculation. A maximum time of 30 minutes (1800 seconds) was given, and the test terminated if ejaculation was not achieved in that time (FIG. 17), Percentage of males achieving ejaculation within 30 minutes was calculated (FIG. 18).
A one-way ANOVA followed by Dunnett's t test was used to compare the fluoxetine+vehicle group and other groups for mount and ejaculatory latencies. Percentage of animals ejaculating was analysed using a Chi-square test followed by Fisher's test. (*: P<0.05, **: P<0.01, ***: P<0.001; n=15-19).

As for `COc1ccc(C2(CNC(=O)[C@](C)(Cc3c[nH]c4ccccc34)NC(=O)Nc3ccc([N+](=O)[O-])cc3)CCCCC2)nc1` [Compound (1), (S) 3-(1H-Indol-3-yl)-N-[1-(5-methoxy-pyridin-2-yl)-cyclohexyl-methyl]-2-methyl-2-[3-(4-nitro-phenyl)-ureido]-propionamide], the “antagonism of the inhibitory effect of NMB on proceptivity” value in assay [1] was “prevented the inhibitory effect of NMB”. In addition, in the assay with Sprague Dawley male rats, the Ejaculation latency entry is listed as “significantly decreased”, the Mount latency result was “significantly decreased” and the “percentage of animals ejaculating (within 30 minutes)” value is “increasing the percentage of animals ejaculating”.
